The values that follow come from ChEMBL document CHEMBL1201862, “PubChem BioAssay data set” (2004).

Molecules are shown by their SMILES. The source made the active and inactive calls.

Test [1] can be described thus: inhibitors of firefly luciferase expression or activity, dose response, H4 neuroglioma cells, luminescence (AID 1990). Type of test: functional, cell-based.
The nature of test [2]: luciferase reporter signal reduction – luminescence, H4-C neuroglioblastoma cells, dose response (AID 2458).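 Also: H4 neuroglioblastoma cells stably carrying a luciferase reporter gene fusion.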 It counts as functional, cell-based. (In general: Reporter assays use an easily measured gene product as a stand-in for the process of interest.)
Another test is described as follows: cells. Type of test: functional, cell-based.
The nature of test [3]: Luminescence Cell-Based Dose Response HTS to Identify Inhibitors of 5'UTR Stem-Loop Driven Prion Protein mRNA Translation in H4 Neuroglioblastoma Cells. [Related pubchem assays: 1827 (Project Summary), 1813 (Primary HTS)]. Type of test: functional.
Test [4] can be described thus: inhibitors of SNCA 5'UTR-driven reporter translation, confirmation, H4 neuroglioma cells, luminescence (AID 1988). It counts as functional, cell-based.
Test [5] concerns BJ. As to the kind of experiment: cells. It counts as functional, cell-based. The note with it: Homo sapiens.
A short description of test [6]: cytotoxicity toward DRD oncogenic fibroblasts, dose response, cell-based, non-viral oncogenic, luminescence (AID 1934). Type of test: functional. The following applies: Homo sapiens.
Test [7] in a line: inhibitors of SNCA 5'UTR-driven translation, confirmation, luminescence, H4 neuroglioblastoma cells, dose confirmation (AID 2454).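 Also: H4 neuroglioblastoma cells carrying an alpha-synuclein 5'UTR luciferase reporter; potency for inhibition of the luciferase signal.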 Type of test: functional, cell-based.
The test system of test [8] is BJ. As to the kind of experiment: cytotoxicity toward Ras-transformed BJeLR fibroblasts, dose response, cell-based, alamar blue fluorescence, cherrypicked samples (AID 2631).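 Also: confirmatory dose-response assay in RAS-dependent BJ fibroblasts engineered with TERT, LT and ST, with cytotoxicity read by fluorescence.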 Type of test: functional. The following applies: Homo sapiens.
The target of the next test is Paired box protein Pax-8 (Homo sapiens, UniProt Q06710). As to the kind of experiment: inhibitors of PAX8-driven TPO luciferase reporter, dose response, RMG-I cells, cherry-pick (AID 687027).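 Also: luciferase reporter driven by Pax8 target thyroperoxidase promoter measured by SteadyGlo luminescence.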 Type of test: functional, cell-based.
A short description of test [9]: non-specific cell cytotoxicity, dose response, cytotoxicity control for PAX8 inhibitor project, plate reader, dry powder samples (AID 743021). It counts as functional, cell-based.
A further test addresses Beta-galactosidase (Escherichia coli, UniProt Q8VNN2). In words: PubChem AID 485352. Type of test: functional.
Test [10] concerns the target Type-1 angiotensin II receptor (Homo sapiens, UniProt P30556). In words: AT1 receptor antagonists, dose response, selectivity assay for APJ receptor antagonist project, cell-based, uHTS hits (AID 463214).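 Also: antagonist potency against angiotensin II stimulated AT1 response.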 It counts as functional.
For test [11], the target named is T1, Endoribonuclease toxin MazF (Escherichia coli K-12, UniProt P0AE70).
T1 sequence (P0AE70 whole entry): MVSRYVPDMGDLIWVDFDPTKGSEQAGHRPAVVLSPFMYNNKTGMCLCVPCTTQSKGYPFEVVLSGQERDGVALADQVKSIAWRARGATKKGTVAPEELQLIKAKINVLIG
In words: MazF endoribonuclease activators, SAR follow-up, biochemical, fluorescence, single-stranded RNA substrate (AID 588603). It counts as functional.

For test [12], the target named is T1, Endoribonuclease toxin MazF. As to the kind of experiment: MazF toxin RNase activators, dose response, biochemical, fluorescence, single-stranded RNA substrate, uHTS hits (AID 588481). It counts as functional.
A further test relates to MEF. As to the kind of experiment: SAR analysis of small molecule cytotoxicity of MazEF TA System activators in embryonic fibroblast (MEF) cells. [Related pubchem assays (depositor defined):AID504720, AID504743]. Type of test: functional. The following applies: Mus musculus.
Test [13] has as its target T1, Endoribonuclease toxin MazF. In words: SAR analysis of small molecule activators of the MazEF TA System via a fluorescence-based single-stranded RNase assay counterscreen. [Related pubchem assays (depositor defined):AID504720, AID504743]. Type of test: functional.
The target is the same in test [14]. As to the kind of experiment: fluorescent RNA oligo signal without MazF, dose response, counter-screen for MazEF activator project, biochemical, fluorescence, single-stranded RNase substrate (AID 588502). It counts as functional.
Another test concerns CHO-K1. In words: Counterscreen for antagonists of the orexin 1 receptor (OX1R; HCRTR1): Homogeneous time resolved fluorescence (HTRF)-based cell-based dose response assay to identify antagonists of the parental CHO-K1 cell line. [Related pubchem assays (depositor defined):AID434989, AID435008, AID463079, AID485270, AID492963, AID492964, AID492965, AID493232, AID504699, AID504701]. It counts as functional. The following applies: Cricetulus griseus. A general note: A counterscreen serves to expose hits that act by an unwanted route or on another target.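 Also: potency for inhibition of ATP-stimulated IP1 production as antagonists.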

The nature of test [15]: Counterscreen for antagonists of the orexin 1 receptor (OX1R; HCRTR1): Fluorescence-based cell-based high throughput dose response assay to identify antagonists of the parental CHO cell line. [Related pubchem assays (depositor defined):AID434989, AID435008, AID463079, AID485270, AID492963, AID492964, AID492965, AID493232, AID504699, AID504701]. It counts as functional.
Test [16] has as its target T2, Orexin/Hypocretin receptor type 1 (Homo sapiens, UniProt O43613).
T2 sequence (O43613 whole entry): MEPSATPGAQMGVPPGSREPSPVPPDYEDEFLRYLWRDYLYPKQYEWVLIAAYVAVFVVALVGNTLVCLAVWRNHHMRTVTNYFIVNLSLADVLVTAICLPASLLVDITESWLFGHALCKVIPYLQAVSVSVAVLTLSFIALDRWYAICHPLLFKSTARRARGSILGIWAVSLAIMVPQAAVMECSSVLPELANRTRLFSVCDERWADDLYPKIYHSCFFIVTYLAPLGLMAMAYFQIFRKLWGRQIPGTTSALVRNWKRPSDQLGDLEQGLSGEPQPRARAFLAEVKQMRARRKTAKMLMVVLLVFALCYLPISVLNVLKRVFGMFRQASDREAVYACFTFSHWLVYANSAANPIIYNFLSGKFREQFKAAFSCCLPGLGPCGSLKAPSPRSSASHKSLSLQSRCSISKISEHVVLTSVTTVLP
As to the kind of experiment: Homogeneous Time Resolved Fluorescence (HTRF)-based cell-based high throughput dose response assay for antagonists of the orexin 1 receptor (OX1R; HCRTR1). [Related pubchem assays (depositor defined):AID434989, AID435008, AID463079, AID485270, AID492963, AID492964, AID492965, AID493232, AID504717, AID504718]. Type of test: functional. (TR-FRET usually uses a lanthanide donor and a delayed reading to cut background.)

Test [17] deals with T2, Orexin/Hypocretin receptor type 1. As to the kind of experiment: Fluorescence-based cell-based high throughput dose response assay for antagonists of the orexin 1 receptor (OX1R; HCRTR1). [Related pubchem assays (depositor defined):AID434989, AID435008, AID463079, AID485270, AID492963, AID492964, AID492965, AID493232, AID504717, AID504718]. Type of test: functional.
In test [18] the target is T3, Orexin receptor type 2 (Homo sapiens, UniProt O43614).
T3 sequence (O43614 whole entry): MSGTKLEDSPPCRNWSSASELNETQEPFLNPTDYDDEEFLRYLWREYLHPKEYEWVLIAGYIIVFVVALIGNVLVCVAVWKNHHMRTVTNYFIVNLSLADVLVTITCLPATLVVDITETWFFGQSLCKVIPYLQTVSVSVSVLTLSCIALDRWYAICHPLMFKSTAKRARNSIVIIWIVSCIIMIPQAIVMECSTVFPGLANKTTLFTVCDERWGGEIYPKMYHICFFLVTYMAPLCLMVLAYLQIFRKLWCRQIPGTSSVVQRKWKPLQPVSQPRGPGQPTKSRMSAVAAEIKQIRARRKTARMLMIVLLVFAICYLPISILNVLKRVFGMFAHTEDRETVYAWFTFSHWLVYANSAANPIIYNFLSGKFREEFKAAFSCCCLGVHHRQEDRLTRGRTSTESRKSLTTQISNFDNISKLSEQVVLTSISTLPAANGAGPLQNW
In words: Counterscreen assay for antagonists of the orexin 1 receptor (OX1R; HCRTR1): Fluorescence-based cell-based dose response assay for antagonists of the orexin 2 receptor (OX2R; HCRTR2), run by assay provider. Type of test: functional.

Test [19] deals with T3, Orexin receptor type 2. As to the kind of experiment: Counterscreen assay for antagonists of the orexin 1 receptor (OX1R; HCRTR1): Homogeneous Time Resolved Fluorescence (HTRF)-based cell-based dose response assay for antagonists of the orexin 2 receptor (OX2R; HCRTR2), run by assay provider. Type of test: functional.
In test [20] the test system is BJ. In words: cytotoxicity toward BJ-TERT fibroblasts, dose response, cell-based, RAS-independent, luminescence (AID 1933). It counts as functional. The note with it: Homo sapiens.
The subject of test [21] is BJ. In words: cytotoxicity toward BJ-TERT-LT-ST fibroblasts, dose response, cell-based, RAS-independent, luminescence (AID 1935).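 Also: BJ fibroblasts immortalized with TERT plus LT and ST oncogenes.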 Type of test: functional. The note with it: Homo sapiens.
In test [22] the target is Delta-type opioid receptor (Homo sapiens, UniProt P41143). In words: Counterscreen for agonists of heterodimerization of the mu 1 (OPRM1) and delta 1 (OPRD1) opioid receptors: Luminescence-based cell-based high throughput dose response assay to identify agonists of OPRD1 homodimerization. [Related pubchem assays (depositor defined):AID504326, AID504355, AID504692, AID504904, AID504905]. Type of test: functional.

In another test the target is Mu-type opioid receptor (Homo sapiens, UniProt P35372). As to the kind of experiment: Counterscreen for agonists of heterodimerization of the mu 1 (OPRM1) and delta 1 (OPRD1) opioid receptors: Luminescence-based cell-based high throughput dose response assay to identify agonists of OPRM1 homodimerization. It counts as functional.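 Also: U2OS cells expressing OPRM1 and beta-arrestin as split beta-galactosidase partners.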
Test [23] addresses 5-hydroxytryptamine receptor 5A (Homo sapiens, UniProt P47898). In words: Counterscreen for agonists of OPRM1-OPRD1 heterodimerization: luminescence-based cell-based high throughput dose response assay to identify agonists of 5-hydroxytryptamine (serotonin) 5A receptor (HTR5A). [Related pubchem assays (depositor defined):AID504326, AID504355, AID504692, AID504904, AID504905]. Type of test: functional.

In a further test the target is Phospholipase D1 (Homo sapiens, UniProt Q13393). In words: PLD1 inhibitor potency in cells, dose response (AID 602151).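 Also: cellular PLD1 assay in Calu-1 cells stimulated with PMA.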 Type of test: functional.
A further test addresses Phospholipase D2 (Homo sapiens, UniProt O14939). As to the kind of experiment: PLD2 inhibitor potency in cells, dose response (AID 602147).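 Also: cellular assay in HEK293 cells overexpressing GFP-tagged PLD2.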 Type of test: functional.
Test [24] can be described thus: microbe, parasite or virus in culture. It counts as functional. The note with it: Mycobacterium tuberculosis.

Sequence of Type-1 angiotensin II receptor (P30556 whole entry): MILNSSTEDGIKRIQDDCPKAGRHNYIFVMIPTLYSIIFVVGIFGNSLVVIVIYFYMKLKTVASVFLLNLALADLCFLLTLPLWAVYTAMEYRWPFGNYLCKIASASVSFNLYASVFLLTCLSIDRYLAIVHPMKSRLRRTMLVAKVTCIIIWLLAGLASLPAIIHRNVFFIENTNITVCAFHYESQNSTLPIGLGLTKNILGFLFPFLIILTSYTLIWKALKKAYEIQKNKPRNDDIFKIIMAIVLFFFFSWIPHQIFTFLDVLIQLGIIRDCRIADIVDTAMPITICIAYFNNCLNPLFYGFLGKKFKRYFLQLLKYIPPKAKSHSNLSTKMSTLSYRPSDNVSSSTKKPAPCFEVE
Sequence of Phospholipase D1 (Q13393 whole entry): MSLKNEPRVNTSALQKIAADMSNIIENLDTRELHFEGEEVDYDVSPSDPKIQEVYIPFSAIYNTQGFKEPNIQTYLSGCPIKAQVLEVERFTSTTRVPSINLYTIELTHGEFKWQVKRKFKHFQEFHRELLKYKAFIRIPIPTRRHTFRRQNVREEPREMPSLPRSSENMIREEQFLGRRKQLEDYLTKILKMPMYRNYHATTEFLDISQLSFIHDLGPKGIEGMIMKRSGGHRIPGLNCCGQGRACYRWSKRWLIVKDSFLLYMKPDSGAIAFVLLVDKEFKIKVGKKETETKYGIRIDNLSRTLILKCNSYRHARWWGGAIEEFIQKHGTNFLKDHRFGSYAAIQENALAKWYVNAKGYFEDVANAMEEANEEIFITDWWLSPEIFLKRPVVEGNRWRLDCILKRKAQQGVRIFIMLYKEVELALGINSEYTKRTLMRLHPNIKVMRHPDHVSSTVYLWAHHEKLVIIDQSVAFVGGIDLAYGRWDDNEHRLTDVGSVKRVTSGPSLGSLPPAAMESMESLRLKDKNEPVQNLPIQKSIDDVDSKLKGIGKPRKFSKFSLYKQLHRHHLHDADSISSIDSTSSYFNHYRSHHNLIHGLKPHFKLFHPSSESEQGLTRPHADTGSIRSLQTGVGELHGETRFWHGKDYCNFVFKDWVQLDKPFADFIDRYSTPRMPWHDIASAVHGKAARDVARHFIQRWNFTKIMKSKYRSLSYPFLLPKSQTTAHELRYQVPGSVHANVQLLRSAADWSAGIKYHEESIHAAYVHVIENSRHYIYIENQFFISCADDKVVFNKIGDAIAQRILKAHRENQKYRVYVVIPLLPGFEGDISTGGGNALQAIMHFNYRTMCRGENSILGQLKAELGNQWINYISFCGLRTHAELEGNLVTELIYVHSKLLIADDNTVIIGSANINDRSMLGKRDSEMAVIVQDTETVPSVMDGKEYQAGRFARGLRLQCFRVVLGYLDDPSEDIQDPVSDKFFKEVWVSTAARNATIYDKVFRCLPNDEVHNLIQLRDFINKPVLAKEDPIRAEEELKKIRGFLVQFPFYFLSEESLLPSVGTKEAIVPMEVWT
Sequence of Beta-galactosidase (Q8VNN2 whole entry): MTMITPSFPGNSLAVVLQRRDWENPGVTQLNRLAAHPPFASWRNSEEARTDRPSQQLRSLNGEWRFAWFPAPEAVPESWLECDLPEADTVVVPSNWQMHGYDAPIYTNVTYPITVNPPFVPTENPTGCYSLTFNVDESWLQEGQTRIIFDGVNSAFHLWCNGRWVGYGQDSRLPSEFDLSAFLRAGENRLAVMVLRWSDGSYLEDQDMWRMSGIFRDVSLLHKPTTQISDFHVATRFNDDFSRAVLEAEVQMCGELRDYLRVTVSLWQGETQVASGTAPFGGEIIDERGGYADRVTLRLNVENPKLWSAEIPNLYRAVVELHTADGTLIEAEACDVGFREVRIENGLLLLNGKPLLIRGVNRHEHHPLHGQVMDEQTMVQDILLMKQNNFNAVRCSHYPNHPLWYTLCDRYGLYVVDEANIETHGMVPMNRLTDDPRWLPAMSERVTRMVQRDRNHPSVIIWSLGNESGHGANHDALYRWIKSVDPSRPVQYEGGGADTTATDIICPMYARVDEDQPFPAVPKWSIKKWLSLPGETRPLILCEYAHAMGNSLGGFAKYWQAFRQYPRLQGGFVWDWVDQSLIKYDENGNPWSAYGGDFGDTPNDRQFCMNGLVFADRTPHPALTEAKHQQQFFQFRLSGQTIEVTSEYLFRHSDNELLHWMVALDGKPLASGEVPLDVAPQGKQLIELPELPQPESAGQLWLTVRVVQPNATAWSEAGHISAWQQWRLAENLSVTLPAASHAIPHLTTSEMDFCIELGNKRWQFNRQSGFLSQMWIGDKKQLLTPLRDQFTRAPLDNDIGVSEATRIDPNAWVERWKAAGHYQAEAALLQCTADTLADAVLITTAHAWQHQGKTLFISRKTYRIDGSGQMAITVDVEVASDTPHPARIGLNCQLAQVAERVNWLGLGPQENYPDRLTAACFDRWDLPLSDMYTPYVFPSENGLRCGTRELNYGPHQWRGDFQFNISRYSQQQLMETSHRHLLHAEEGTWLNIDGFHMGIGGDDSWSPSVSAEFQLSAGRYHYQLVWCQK
Sequence of Phospholipase D2 (O14939 whole entry): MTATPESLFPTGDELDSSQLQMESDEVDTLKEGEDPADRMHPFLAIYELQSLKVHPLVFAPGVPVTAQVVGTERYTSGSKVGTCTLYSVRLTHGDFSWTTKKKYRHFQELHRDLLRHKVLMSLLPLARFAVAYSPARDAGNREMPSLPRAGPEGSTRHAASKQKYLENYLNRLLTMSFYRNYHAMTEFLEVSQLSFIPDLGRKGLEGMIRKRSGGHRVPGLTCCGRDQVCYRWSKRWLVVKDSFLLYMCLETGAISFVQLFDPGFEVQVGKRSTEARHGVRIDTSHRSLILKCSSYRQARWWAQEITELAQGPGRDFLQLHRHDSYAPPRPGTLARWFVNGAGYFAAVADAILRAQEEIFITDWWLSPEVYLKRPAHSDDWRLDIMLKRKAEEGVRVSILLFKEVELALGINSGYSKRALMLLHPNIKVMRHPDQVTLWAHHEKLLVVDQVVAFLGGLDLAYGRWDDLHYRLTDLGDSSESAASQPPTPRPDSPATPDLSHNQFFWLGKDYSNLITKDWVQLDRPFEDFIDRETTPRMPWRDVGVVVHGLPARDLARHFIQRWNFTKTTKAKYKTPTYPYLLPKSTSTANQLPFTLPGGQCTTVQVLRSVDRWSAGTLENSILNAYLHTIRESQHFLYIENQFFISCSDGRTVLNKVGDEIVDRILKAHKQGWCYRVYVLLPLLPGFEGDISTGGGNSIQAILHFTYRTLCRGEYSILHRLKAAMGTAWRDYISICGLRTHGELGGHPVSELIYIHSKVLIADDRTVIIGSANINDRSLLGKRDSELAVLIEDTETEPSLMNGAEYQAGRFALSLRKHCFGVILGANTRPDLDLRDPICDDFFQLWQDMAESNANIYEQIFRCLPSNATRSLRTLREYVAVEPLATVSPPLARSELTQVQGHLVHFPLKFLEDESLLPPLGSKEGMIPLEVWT
Sequence of 5-hydroxytryptamine receptor 5A (P47898 whole entry): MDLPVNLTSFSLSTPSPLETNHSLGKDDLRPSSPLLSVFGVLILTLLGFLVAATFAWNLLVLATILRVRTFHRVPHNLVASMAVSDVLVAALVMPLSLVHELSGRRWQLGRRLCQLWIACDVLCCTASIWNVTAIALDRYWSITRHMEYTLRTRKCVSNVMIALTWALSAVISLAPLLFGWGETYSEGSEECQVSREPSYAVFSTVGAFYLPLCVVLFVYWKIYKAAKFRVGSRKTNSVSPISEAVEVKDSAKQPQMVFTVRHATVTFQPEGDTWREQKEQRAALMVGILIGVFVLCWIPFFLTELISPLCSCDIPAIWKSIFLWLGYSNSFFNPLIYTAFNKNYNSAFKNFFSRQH
Sequence of Paired box protein Pax-8 (Q06710 whole entry): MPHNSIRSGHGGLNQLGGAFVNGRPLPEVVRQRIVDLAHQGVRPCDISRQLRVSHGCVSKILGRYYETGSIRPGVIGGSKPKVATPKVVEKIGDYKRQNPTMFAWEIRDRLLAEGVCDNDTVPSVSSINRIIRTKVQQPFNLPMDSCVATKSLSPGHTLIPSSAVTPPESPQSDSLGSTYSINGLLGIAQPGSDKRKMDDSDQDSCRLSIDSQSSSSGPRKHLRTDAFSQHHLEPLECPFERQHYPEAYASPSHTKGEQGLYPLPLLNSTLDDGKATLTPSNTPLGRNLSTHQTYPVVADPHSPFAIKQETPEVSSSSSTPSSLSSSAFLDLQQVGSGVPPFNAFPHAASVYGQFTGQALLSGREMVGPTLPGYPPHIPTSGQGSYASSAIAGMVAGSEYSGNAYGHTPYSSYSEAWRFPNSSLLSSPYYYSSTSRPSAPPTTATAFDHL
Sequence of Delta-type opioid receptor (P41143 whole entry): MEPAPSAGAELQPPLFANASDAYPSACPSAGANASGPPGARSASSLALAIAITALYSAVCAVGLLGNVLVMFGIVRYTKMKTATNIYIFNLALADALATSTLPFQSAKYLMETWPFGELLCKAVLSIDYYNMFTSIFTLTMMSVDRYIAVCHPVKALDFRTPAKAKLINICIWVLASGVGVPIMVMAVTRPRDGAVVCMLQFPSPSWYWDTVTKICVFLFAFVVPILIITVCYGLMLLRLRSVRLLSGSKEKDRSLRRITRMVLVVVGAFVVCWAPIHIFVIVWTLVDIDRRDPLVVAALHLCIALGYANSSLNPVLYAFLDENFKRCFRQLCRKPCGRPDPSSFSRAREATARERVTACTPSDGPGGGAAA
Sequence of Mu-type opioid receptor (P35372 whole entry): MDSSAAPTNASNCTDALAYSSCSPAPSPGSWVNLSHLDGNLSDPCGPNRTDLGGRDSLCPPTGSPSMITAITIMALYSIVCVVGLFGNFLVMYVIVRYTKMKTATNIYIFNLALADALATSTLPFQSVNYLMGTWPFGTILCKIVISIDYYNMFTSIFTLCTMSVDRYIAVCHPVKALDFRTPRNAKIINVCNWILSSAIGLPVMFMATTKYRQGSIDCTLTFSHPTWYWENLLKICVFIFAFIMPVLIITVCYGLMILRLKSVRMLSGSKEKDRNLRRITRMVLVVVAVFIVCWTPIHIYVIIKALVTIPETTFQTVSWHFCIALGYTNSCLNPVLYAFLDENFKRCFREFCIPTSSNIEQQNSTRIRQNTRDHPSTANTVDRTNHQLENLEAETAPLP

A word on the EC50: it is the midpoint of the concentration-response curve. In general, AC50 refers to the midpoint of the concentration-response curve, whichever way the signal moves. With `CCOc1ccc(C2=Nn3c(nnc3-c3ccccc3OC)SC2)cc1`, the EC50 is < 0.1 µM (active) in test [1]; 0.034 µM (active) in test [2]; 0.046 µM (active) in the test “cells”; < 0.1 µM (active) in test [3]; < 0.1 µM (active) in test [4]; < 0.12 µM (active) in the test on BJ [5]. The EC50 was < 0.12 µM (active) in test [6], 0.04 µM (active) in test [7] and < 0.104 µM (active) in the test with BJ [8]. The figures for the AC50 (at Paired box protein Pax-8; in [9]) were 0.317 µM (active) and 63 µM (active), respectively.
A word on the IC50: it is the concentration at which inhibition is half-maximal. Regarding `O=C1NC[C@H](c2ccccc2)OC(=O)[C@@H](Cc2ccc(F)cc2)CC/C=C/C[C@@H]1CC(=O)N(CCO)Cc1ccccc1`, the EC50 on Beta-galactosidase is 19.5 µM (active). Moreover, the IC50 in test [10] is 33.7 µM (not active).
For the compound `Cc1c(C(=O)Oc2cc(N)n(S(C)(=O)=O)n2)cccc1[N+](=O)[O-]`, the EC50 in [11] was 6.63 µM (active); in [12], 5.59 µM (active); in test [13], > 99 µM (inactive); in [14] it was > 99 µM (inactive). Besides, the CC50 in the test on MEF is > 99 µM (inactive).
`CSc1cccc(NC(=O)C2CCCN(S(=O)(=O)c3cccs3)C2)c1` (stereo not given): the IC50 in the test on CHO-K1 was > 66.2 µM (inactive); in [15], > 49.7 µM (inactive); in [16], 0.546 µM (active); in [17] it was 6.4 µM (active); on Orexin receptor type 2 [18] it was 5.3 µM (active); at Orexin receptor type 2 [19] it was > 50 µM (inactive).
For the compound `CC(=O)c1ccc(NC(=O)N2CCc3ccccc3C2)cc1`, the EC50 in the test with BJ [20] was > 150 µM (not active); in the test with BJ [5] it was 10.5 µM (active); in the test with BJ [21], > 150 µM (not active); in test [6] it was > 150 µM (not active); in the test with BJ [8], 6.04 µM (active).
With `COc1ccc(C2C(C#N)=C(N)N(c3sc4c(c3C#N)CCCC4)C3=C2C(=O)CC(C)(C)C3)cc1` (stereo not given), the EC50 in test [22] was 11.6 µM (inactive); on Mu-type opioid receptor, > 92.5 µM (inactive); in [23] it was > 92.5 µM (inactive).
In the case of `Cn1c2ccccc2c(=O)c2cc(C#Cc3cccc(N)c3)ccc21`, the IC50 with CHO-K1 is > 66.3 µM (inactive); in [15], > 49.8 µM (inactive); in test [16], 1.5 µM (active); in test [17] it was 1.69 µM (active); on Orexin receptor type 2 [18] it was > 88.8 µM (inactive); on Orexin receptor type 2 [19] it was 0.07 µM (active).
With `Cc1ccc(C(=O)N[C@@H](C)CN2CCC(n3c(=O)[nH]c4cc(Br)ccc43)CC2)cc1`, the IC50 at Phospholipase D1 was 0.007 µM (active); on Phospholipase D2, 2.8 µM (active).
With `C[C@@H](CN1CC=C(n2c(=O)[nH]c3ccccc32)CC1)NC(=O)[C@H]1C[C@@H]1c1ccccc1`, the IC50 on Phospholipase D1 was 0.48 µM (active); on Phospholipase D2, 20 µM (active).
For `CC1CC2=C(CC1/C=N/NC(N)=S)C(C)(C)CCC2` (stereo not given), the EC50 at Beta-galactosidase is > 40 µM (inactive). For the same compound, the CC50 in [24] was 20.9 µM (active). The IC50 in test [10] was 22.6 µM (not active).
